Data: patent publication US20260215432A1, “ANTIMICROBIAL CONJUGATED OLIGOELECTROLYTES AND METHODS THEREOF” (National University of Singapore, priority 2023, published 2026)

Columns and labels:
MRSA [1] = assay: Membrane depolarization assay (DiSC3(5)); format: cell-based, S. aureus; conditions: DiSC3(5)-encapsulated MRSA cells
Source text: The interactions of DM6P with various bacterial cell membranes were first investigated through spectrometric methods. In normal cells, compartmentalization of the intracellular space by the lipid bilayer enables the maintenance of a transmembrane potential, which is necessary for regular cell division and energy production. The membrane-potential sensitive dye 3,3′-dipropylthiadicarbocyanine iodide (DiSC3(5)) accumulates within the membranes of healthy, polarized cells where its fluorescence is self-quenched. Depolarization of the membrane necessary to maintain this gradient causes the release of this dye, resulting in an increase in fluorescence intensity. […]
Determination of the extent of depolarization of bacterial cell membranes was carried out using a voltage sensitive dye DiSC3(5) (ThermoFisher, USA). The dye is able to accumulate within polarized healthy cell membranes with resulting quenched fluorescence. When the membrane is depolarized, subsequent ion permeabilization releases the dye from the membrane and gives rise to enhanced fluorescence intensity.^3 The assay was performed according to a modified protocol reported previously. […] The plate was incubated in the dark for 30 minutes, with the signal measured every 5 minutes until a stable baseline was observed. COEs were then added at varying concentrations and the fluorescence intensity was measured over time at 37° C. […]

MRSA [2] = assay: Resistance development by serial passaging at 0.5× MIC; format: cell-based, S. aureus
Method: The non-specific action of membrane-active antibiotics lends itself to minimal development of resistance development due to the large metabolic burden involved, unlike traditional antibiotics with a well-defined enzymatic target. Based on this premise, we passaged bacteria incubated with DM6P, or ciprofloxacin (control), at 0.5× MIC to investigate the adaptation of bacteria towards external antibiotic stress. As a control, treatment of MRSA with ciprofloxacin gave rise to antibiotic-resistant mutants within 4 passages, see FIG. 4a. […] Combined with its broad spectrum of activity, this feature opens opportunities for the use of COE antimicrobial agents to address polymicrobial infections with a lower rate of emerging antibiotic resistance.

MRSA [3] = assay: S. aureus murine wound infection model; format: in vivo, mice; conditions: 0.05 mg/kg, MRSA-inoculated mouse wound, 24 hours
Method: To probe the potential of TPP-COEs as viable therapeutics, we assessed the efficacy of DM6P to treat bacterial infections in vivo. An S. aureus murine wound infection model was used due to prevalent clinical concerns associated with S. aureus skin and soft tissue infections (SSTIs). […] Relative to current clinical dosages of 4-6 mg/kg for daptomycin, the low concentrations required to achieve such activity in vivo and absence of bacterial regrowth after 24 hours underscores the potential for further developing TPP-COEs with improved activity and safety profiles.
Animal experiments were approved by the Institutional Animal Care and Use Committee (IACUC), National University of Singapore (R20-1178) and carried out in line with procedures in the Guide for the Care and Use of Laboratory Animals (National Institutes of Health). C57BL6 mice (female, 18-20 g) were anaesthetized by ketamine and the hair at the back were shaved and removed. A 6 mm-diameter excisional wound was created on the back using a biopsy punch. Log phase MRSA (in 5 μl PBS) were inoculated onto the wound. A 3M tegaderm were used to cover the wound site from contamination. […] Significant levels were evaluated by a one-way ANOVA followed by a multiple comparison analysis of variance by a one-way Tukey test (Graphpad PRISM).

With `COc1cc(/C=C/c2ccc(OCCCCCC[P+](c3ccccc3)(c3ccccc3)c3ccccc3)c(OC)c2)ccc1OCCCCCC[P+](c1ccccc1)(c1ccccc1)c1ccccc1.[I-].[I-]` [DM6P] as the molecule, how does the “depolarization of the bacterial membrane” value (MRSA [1]) read?
The value was “dose-dependent depolarization”.

What about the resistance development (MRSA [2]) of the same molecule?
Its resistance development is “did not induce any observable resistant mutants”.

And the “reduction in bacterial load compared to the saline-treated group” value (MRSA [3])?
The value was 3.8 log fold.
